Where “and” joins values, the source holds several entries; their conditions need not be identical. Identical values can stand only once. Like-named read-outs stand apart in the source and are kept apart here.
Columns and labels:
Assay in all cases: SelectScreen kinase assay
[1] = target: T1, TYRO3 (RSE) (Homo sapiens, UniProt Q06418)
T1 sequence (Q06418 41-890): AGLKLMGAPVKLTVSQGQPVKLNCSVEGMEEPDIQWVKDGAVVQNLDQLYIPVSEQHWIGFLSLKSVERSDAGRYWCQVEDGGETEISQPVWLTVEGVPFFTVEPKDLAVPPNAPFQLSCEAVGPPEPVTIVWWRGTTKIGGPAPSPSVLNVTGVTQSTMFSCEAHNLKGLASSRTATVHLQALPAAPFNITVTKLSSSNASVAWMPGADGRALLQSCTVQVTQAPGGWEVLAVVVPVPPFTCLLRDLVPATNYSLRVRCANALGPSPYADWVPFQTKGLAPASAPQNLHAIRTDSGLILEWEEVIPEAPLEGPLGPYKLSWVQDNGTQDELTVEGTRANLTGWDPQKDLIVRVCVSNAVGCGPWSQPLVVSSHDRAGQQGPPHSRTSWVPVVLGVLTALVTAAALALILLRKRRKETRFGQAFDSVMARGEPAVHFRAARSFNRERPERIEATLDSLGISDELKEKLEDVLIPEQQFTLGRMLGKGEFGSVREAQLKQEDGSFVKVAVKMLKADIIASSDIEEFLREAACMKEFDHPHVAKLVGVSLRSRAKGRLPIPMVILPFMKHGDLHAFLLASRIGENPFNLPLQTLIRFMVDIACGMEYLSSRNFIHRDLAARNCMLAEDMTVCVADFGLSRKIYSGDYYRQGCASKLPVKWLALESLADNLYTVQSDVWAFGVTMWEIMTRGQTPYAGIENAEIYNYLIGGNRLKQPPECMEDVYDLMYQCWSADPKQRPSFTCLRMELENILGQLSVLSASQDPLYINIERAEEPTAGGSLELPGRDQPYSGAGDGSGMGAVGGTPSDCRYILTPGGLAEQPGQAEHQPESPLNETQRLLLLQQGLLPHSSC
Protocol: (§1) Selectivity profiling assays were performed by the Invitrogen SelectScreen™ Services. […] The concentration of ATP was selected to be equal to the KM, unless indicated otherwise.

[2] = target: RPS6KA4 (MSK2) (Homo sapiens, UniProt O75676)
Chain of RPS6KA4 (MSK2) (O75676 whole entry): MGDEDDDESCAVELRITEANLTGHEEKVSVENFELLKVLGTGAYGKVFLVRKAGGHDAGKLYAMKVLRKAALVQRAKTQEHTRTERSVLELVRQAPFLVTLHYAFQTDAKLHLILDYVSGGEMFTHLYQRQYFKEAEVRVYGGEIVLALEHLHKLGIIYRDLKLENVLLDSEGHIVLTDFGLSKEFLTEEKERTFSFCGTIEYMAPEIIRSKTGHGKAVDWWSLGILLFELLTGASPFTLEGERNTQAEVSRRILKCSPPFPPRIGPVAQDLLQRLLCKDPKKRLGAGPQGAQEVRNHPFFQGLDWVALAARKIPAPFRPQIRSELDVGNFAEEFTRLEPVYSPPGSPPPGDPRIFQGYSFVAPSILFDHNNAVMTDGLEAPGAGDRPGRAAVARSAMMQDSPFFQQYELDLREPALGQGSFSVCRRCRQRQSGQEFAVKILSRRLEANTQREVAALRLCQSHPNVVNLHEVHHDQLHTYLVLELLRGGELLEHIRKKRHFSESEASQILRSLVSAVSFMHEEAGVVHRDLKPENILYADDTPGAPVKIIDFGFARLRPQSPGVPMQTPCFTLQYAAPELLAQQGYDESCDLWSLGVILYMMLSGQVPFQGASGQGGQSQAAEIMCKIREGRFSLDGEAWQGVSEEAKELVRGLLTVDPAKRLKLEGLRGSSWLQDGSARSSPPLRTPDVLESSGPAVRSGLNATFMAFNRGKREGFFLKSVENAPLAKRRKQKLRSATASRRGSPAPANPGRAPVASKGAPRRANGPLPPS
Protocol: as §1

[3] = target: MET (cMet) (Homo sapiens, UniProt P08581)
Chain of MET (cMet) (P08581 25-1390): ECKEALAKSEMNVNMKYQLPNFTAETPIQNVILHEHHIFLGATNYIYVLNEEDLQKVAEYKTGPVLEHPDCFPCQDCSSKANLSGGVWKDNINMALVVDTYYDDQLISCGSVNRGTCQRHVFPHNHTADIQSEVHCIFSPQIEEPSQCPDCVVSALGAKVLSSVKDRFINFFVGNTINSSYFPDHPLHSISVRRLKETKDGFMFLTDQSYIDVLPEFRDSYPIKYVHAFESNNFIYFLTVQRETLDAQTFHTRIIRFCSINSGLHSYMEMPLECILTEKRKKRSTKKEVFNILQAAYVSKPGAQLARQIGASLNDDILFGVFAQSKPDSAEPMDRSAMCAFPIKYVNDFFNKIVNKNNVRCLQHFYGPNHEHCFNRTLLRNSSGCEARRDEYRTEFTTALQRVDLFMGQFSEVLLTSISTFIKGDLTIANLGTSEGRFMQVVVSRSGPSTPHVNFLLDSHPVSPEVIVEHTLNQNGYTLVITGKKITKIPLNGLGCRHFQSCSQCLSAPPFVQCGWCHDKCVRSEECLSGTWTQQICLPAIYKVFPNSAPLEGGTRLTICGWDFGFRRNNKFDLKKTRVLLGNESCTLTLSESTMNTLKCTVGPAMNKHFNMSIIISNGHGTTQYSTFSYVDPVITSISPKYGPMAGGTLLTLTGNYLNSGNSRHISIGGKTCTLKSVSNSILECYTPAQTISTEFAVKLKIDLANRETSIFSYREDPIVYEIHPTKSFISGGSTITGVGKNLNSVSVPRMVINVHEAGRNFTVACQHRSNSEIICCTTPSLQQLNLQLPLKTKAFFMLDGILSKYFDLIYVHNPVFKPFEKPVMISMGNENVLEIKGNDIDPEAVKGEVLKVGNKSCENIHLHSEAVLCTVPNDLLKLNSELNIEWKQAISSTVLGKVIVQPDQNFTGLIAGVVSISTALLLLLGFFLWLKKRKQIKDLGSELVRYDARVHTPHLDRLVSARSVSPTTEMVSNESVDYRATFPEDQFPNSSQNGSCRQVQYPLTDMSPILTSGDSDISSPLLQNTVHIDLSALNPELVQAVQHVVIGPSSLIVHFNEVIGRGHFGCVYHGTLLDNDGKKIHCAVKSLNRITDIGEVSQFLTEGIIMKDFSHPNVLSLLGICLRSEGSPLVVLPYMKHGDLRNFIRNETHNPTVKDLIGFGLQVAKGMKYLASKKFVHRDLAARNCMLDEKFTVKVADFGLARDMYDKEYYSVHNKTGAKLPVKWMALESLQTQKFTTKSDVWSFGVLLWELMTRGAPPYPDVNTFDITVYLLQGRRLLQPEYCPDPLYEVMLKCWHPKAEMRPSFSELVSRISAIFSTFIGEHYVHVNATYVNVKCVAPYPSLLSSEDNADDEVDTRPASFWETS
Protocol: as §1

[4] = 1 µM, ZLYTE, ATP Km app, listed as WEL028, 1 µM
[5] = 1 h, 1 μM WEL028, 1 h preincubation

Q: What does the source list for `C#CCOc1ccc(Nc2ncc(Cl)c(Nc3ccccc3NC(=O)C=C)n2)c(OC)c1` [Compound 6]?
A: Inhibition at 1 µM (%) [1, 4]: 6%; inhibition at 1 µM [1, 5]: 5%; inhibition at 1 µM ([1]; read-out: Inhibition at 1 µM (%), 1 µM, ZLYTE, ATP Km app): 4%; Inhibition at 1 µM (%) [2, 4]: -4% and 6%; inhibition at 1 µM [2, 5]: 1%; Inhibition (%) ([3]; 1 μM WEL028, 1 h preincubation): -4%; Inhibition at 1 µM (%) ([3]; MET (cMet), 1 µM, ZLYTE, ATP Km app, listed as WEL028, 1 µM): 0% and -9%

From PMC7316778 (Nature Communications, 2020)
